Laboratory results taken from US20200197533A1, “COMBINATION CANCER THERAPY USING CHIMERIC ANTIGEN RECEPTOR ENGINEERED NATURAL KILLER CELLS AS CHEMOTHERAPEUTIC DRUG CARRIERS” (priority 2017, published 2020).
“Also recorded” adds a separate entry of the source.

Columns and labels:
[1] = system: NK92 cells; test: Cell viability (XTT) assay with cMLV(PTX); type: cell-based, human; details: various concentrations of cMLV(PTX)
Experimental: (§1) NK92 and SKOV3 cells were seeded in 96-well plates at 2×10^4 cells per well in 10% FBS-containing media and grown at 37° C. in the presence of 5% CO2 for 6 hours. Cells were incubated with various concentrations of cMLV (PTX) as previously described (Liu, Y, et al (2014). Codelivery of doxorubicin and paclitaxel by cross-linked multilamellar liposome enables synergistic antitumor activity. Mol Pharm 11: 1651-1661) and cell viability was assessed using the Cell Proliferation Kit II (XTT assay) from Roche Applied Science (Indianapolis, Ind.) according to the manufacturer's instructions. Cell viability percentage was determined by subtracting absorbance values obtained from media-only wells from the treated wells and then normalized by the control wells containing cells without drugs.

[2] = system: SKOV3 cells; test: Cell viability (XTT) assay with cMLV(PTX); type: cell-based; details: various concentrations of cMLV(PTX), compared with NK cells
Experimental: as §1

[3] = system: T cell carriers; details: drug-loaded nanocapsules conjugated to murine T cells; cited from earlier work
[4] = system: lymphoma cells; details: drug-loaded nanocapsules conjugated to murine T cells; cited from earlier work

Structure (SMILES)	cell viability of NK92 carrier cells exposed to PTX [1]	cell viability of SKOV3 tumor cells exposed to PTX [2]	toxicity to the T cell carriers [3]	killing of lymphoma cells [4]
CC(=O)O[C@H]1C(=O)[C@@]2(C)[C@H]([C@H](OC(=O)c3ccccc3)[C@]3(O)C[C@H](OC(=O)[C@H](O)[C@@H](NC(=O)c4ccccc4)c4ccccc4)C(C)=C1C3(C)C)[C@]1(OC(C)=O)CO[C@@H]1C[C@@H]2O [PTX, paclitaxel]	not NK92 cells	more sensitive to PTX; also recorded: can kill tumor cells		
CCc1c2c(nc3ccc(O)cc13)-c1cc3c(c(=O)n1C2)COC(=O)[C@]3(O)CC [SN-38]			not toxic to the T cell carriers	effectively killed lymphoma cells
